# Experimental data as given in patent US20240342190A1, “METHODS FOR REDUCING ISCHEMIA-REPERFUSION INJURIES” (BioMimetix JV, LLC, priority 2023, published 2024).
# “Also recorded” adds a separate entry of the source.
# What was measured:
# [1] = test system: aged female Fisher 344 rats subjected to 90 min of MCAO; assay: Experiment 5: stroke outcome in aged female rats; type: in vivo, rat; details: for Neurologic score: median±IQR, p<0.001
# Procedure: (§1) The rats were fasted overnight for glucose control. On the surgery day, they were anesthetized with 5% isoflurane in 30% oxygen balanced with nitrogen. The trachea was orally intubated, and both lungs were mechanically ventilated to maintain normocapnia. Isoflurane was reduced to 1.5% during the surgical procedure. A 22-gauge needle thermistor was percutaneously inserted beneath the temporalis muscle adjacent to the skull. The pericranial temperature was maintained at 37.0° C.±0.2° C. by a surface heat lamp. The tail artery was cannulated with PE 50 tubing (BD Intramedic™ Polyethylene Tubing, Sparks, MD, USA), and arterial blood pressure was continuously monitored. 50 IU of heparin was given via arterial line to prevent intra-arterial thrombosis. Arterial blood samples were collected pre, during, and after ischemia for blood gas, glucose, and hematocrit measurements.
# (§2) Ischemic stroke was induced by transiently occluding the middle cerebral artery (MCAO) as previously reported.^23,24 Briefly, a midline cervical incision was made and the right common carotid artery […] was identified. The external and internal carotid arteries were dissected. […] The internal carotid artery (ICA) was dissected distally until the origin of the pterygopalatine artery was visualized. After surgical preparation, a 10 min interval was allowed for physiologic stabilization. […] The common carotid artery was re-opened, and a timer was started as the onset of cerebral ischemia.
# (§3) After 90 min of MCAO, the filament was removed and a PE-10 tube (BD Intramedic™ Polyethylene Tubing, Sparks, MD, USA) was inserted into the ICA beyond the origin of the pterygopalatine artery. The vehicle or BMX-001 (30-50 μg/kg) solution (1 μl/g for both solutions, 250 μl for the 250 g rat) was slowly infused for 5 minutes via syringe pump. At the completion of intra-carotid infusion, the PE tube was removed and the ECA stump was permanently ligated. The tail artery catheter was removed and both the neck incision and tail incision were infiltrated with bupivacaine and closed with suture. Isoflurane was discontinued. Rats were disconnected from the ventilator when they attained spontaneous respiration and kept in a recovery cage. The tracheas were extubated after recovery of the righting reflex. They were in an O2 enriched environment (30% O2) for 1 h and then returned to the home cage.
# (§4) Post-stroke neurologic deficits were assessed at day 7 and 28 using a standardized neurological scoring system.^27,28 General status, simple motor deficit, complex motor deficit, and sensory deficit were evaluated, including the ability of walking on a beam and climbing on the vertical screen. The total score each animal received was the sum of all four individual scores (0-48, 0=normal and 48=the worst score).
# (§5) Upon the completion of functional tests, the animals were weighed, anesthetized with isoflurane, and decapitated. The brains were harvested, frozen at −20° C. in 2-methylbutane on dry ice, and stored in a −80° C. freezer. Serial quadruplicate 20-μm-thick coronal sections were cut using a Leica cryostat and mounted on the slides at 720-μm interval over the rostral-caudal extent of the brain. The sections were dried on a slide heater at 36° C., and stained with hematoxylin and eosin. A section from each […] interval was digitized with a video camera controlled by an image analyzer (MCID, the MicroComputer Imaging Device, Imaging Research Inc, St. Catharines, Ontario, Canada). […] With the observer blinded to the experimental condition, the following regions of interest (ROI) were outlined individually using an operator-controlled cursor, including non-infarcted ipsilateral cerebral cortex, non-infarcted ipsilateral subcortex, contralateral cerebral cortex, and contralateral subcortex. The area in each ROI (mm^2) was determined by automated counting of calibrated pixels and the volume (mm^3) was computed by the known interval between sections over the rostral-caudal extent of brain. […]
# [2] = test system: young male Wistar rats subjected to 90 min of MCAO (ischemic stroke); assay: Experiment 1: acute stroke outcome after 90 min MCAO, intracarotid BMX-001 then subcutaneous for 7 days; type: in vivo, rat
# Procedure: as §1, §2, §3, §4, §5
# [3] = test system: brain tissues and vessels (vascular endothelial wall); assay: Experiment 7: body weight and brain/vascular histology after intracarotid infusion; details: non-stroke rats; 3 days after intracarotid infusion; H&E
# Procedure: 30 μg/kg of BMX-001 (n=4), or same amount of saline (n=4) or Solu-Medrol (n=4) was given to normal Wistar rats through the carotid artery. Rats were recovered for 3 days and perfused intracardially with normal saline followed by 10% formalin. Brains were paraffin embedded, cut, and stained with hematoxylin and eosin. Vascular histologic damage was assessed.
# blood brain barrier = assay: Experiment 7: blood brain barrier permeability after intracarotid infusion (Evans blue content); details: non-stroke rats, vs vehicle
# Procedure: 30 μg/kg of BMX-001 (n=4), or same amount of saline (n=4) or mannitol (n=4) was given to normal male Wistar rats through the carotid artery. The rats received 100 μl 2% Evans blue intravenous infusion 30 min later and then intracardially perfused using 100 ml normal saline at 30 min following infusion. Brains were harvested and the Evans blue content was measured spectrophotometrically.
# [4] = test system: young male spontaneously hypertensive rats (SHR) subjected to 90 min of MCAO; assay: Experiment 4: stroke outcome in young spontaneously hypertensive rats; type: in vivo, rat; details: for Neurologic score: median±IQR
# Procedure: as §1, §2, §3, §4, §5
# [5] = test system: young female Wistar rats subjected to 90 min of MCAO (ischemic stroke); assay: Experiment 2: long-term stroke outcome in young female rats; type: in vivo, rat; details: for Neurologic score: median±IQR, p=0.04 vs vehicle
# Procedure: as §1, §2, §3, §4
# Upon the completion of functional tests, the animals were weighed, anesthetized with isoflurane, and decapitated. The brains were harvested, frozen at −20° C. in 2-methylbutane on dry ice, and stored in a −80° C. freezer. Serial quadruplicate 20-μm-thick coronal sections were cut using a Leica cryostat and mounted on the slides at 720-μm interval over the rostral-caudal extent of the brain. The sections were dried on a slide heater at 36° C., and stained with hematoxylin and eosin. […] The area in each ROI (mm^2) was determined by automated counting of calibrated pixels and the volume (mm^3) was computed by the known interval between sections over the rostral-caudal extent of brain. […]
structure (smiles),measurement,setting,value
"CCCCOCC[n+]1ccccc1C1=C2C=CC3=[N+]2[Mn]24[n]5c1ccc5C(c1cccc[n+]1CCOCCCC)=C1C=CC(=[N+]12)C(c1cccc[n+]1CCOCCCC)=c1ccc([n]14)=C3c1cccc[n+]1CCOCCCC [BMX-001, MnTnBuOE-2-PyP^5+]",MAP,"[1]; 10 minutes post-stroke, aged female Fisher 344 rats",90 ± 13 mmHg
same,"Infarct volume (FIG. 5, Panel C), in words",[1]; 28 days after stroke,significantly reduced infarct volume
same,Reduction of infarct volume,"[1]; 28 days after stroke, vs vehicle",60%
same,Subcortex infarct volume,"[1]; 28 days, p=0.0010",10±12 mm^3
same,Total infarct volume,"[1]; 28 days, p=0.0037 vs vehicle",31±41 mm^3
same,Cortex infarct volume,"[1]; 28 days, p=0.0122 vs vehicle",21±32 mm^3
same,Neurologic score,[1]; day 7,4±4.75
same,"Neurologic functions (FIG. 5, Panel B), in words",[1]; day 7 and 28 post-stroke,significantly attenuated neurologic deficits
same,Body weight,[1]; day 7 post-stroke,233±19 grams
same,Body weight loss from the baseline body weight,[1]; day 7 post-stroke,8 grams
same,Neurologic score,[1]; day 28,4±4.75
same,Rats died at post-stroke day 2 due to large infarct,[1]; of n=17,one
same,"Perioperative blood pressure (FIG. 1, Panel A), in words",[2]; 5 min vs 45 min post-treatment,lower blood pressure
same,Perioperative blood pressure,"[2]; 10 minutes post-ischemia, after 30 μg/kg intracarotid BMX-001, p=0.04 vs vehicle",75±4 mmHg
same,Body weight,[2]; 24 hours post-stroke,252±9 grams
same,"Post-stroke body weight recovery (FIG. 1, Panel B), in words","[2]; body weight at 7 Days vs 24 hours, p=0.02",promoted post-stroke body weight recovery
same,"Infarct volume (FIG. 1, Panel D), in words",[2]; day 7 post-stroke,significantly improved
same,"Neurologic scores (FIG. 1, Panel C), in words",[2]; day 7 post-stroke,significantly improved
same,Body weight,"[2]; day 7 post-stroke, p=0.02 vs 24 hours",279±9 grams
same,Subcortex infarct,"[2]; day 7 post-stroke, p=0.02 vs vehicle",38.964 ±8.892 mm^3
same,Total infarct,"[2]; day 7 post-stroke, p=0.04 vs vehicle",89.097±48.424 mm^3
same,Cortex infarct,"[2]; day 7 post-stroke, p=0.07 vs vehicle",49.864±42.899 mm^3
same,Neurologic score,"[2]; post-stroke day 7, score 0-48 (0=normal), median±IQR, p<0.01 vs vehicle",4±3.5
same,"Brain histology / vascular histologic damage, in words",[3],normal; also recorded: no histologic damage
same,"Evans blue content in brain / blood brain barrier permeability, in words",blood brain barrier,only somewhat higher Evans blue content; also recorded: did not affect the BBB
same,MAP,"[4]; 10 minutes post-stroke, SHR rats",83 ± 11 mmHg
same,"Infarct volume (FIG. 4, Panel C), in words",[4]; 28 days,no intra-group difference
same,Subcortex infarct volume,"[4]; 28 days, p=0.14",51±23 mm^3
same,Total infarct volume,"[4]; 28 days, p=0.21",179±51 mm^3
same,Cortex infarct volume,"[4]; 28 days, p=0.37",128±37 mm^3
same,Neurologic score,"[4]; day 7, p=0.05 vs vehicle",14±8
same,Neurologic score,"[4]; day 28, p=0.018 vs vehicle",9.5±6.25
same,"Neurological deficits (FIG. 4, Panel B), in words",[4]; day 28 post-stroke,significantly improved
same,Rats survived for 28 days,"[4]; of n=15, three BMX-001 rats died at 8, 9 and 10 days after stroke",12
same,Neurologic score,[5]; 7 days post-stroke,11±7
same,Neurologic score,[5]; 28 days post-stroke,7±6
same,Infarct volume,"[5]; 28 days post-stroke, p=0.38 vs vehicle",157.378 ±63.699 mm^3
same,"Neurologic score (FIG. 2, Panel A), in words",[5]; day 7 and day 28 compared to the vehicle group,better neurologic score
same,"Infarct volumes (FIG. 2, Panel B), in words","[5]; day 28, no intragroup difference was detected",smaller
